Assay results from EPA's ToxValDB 9.5 (doi:10.2903/j.efsa.2010.1779).
Values after ≈ are worked out from the molar mass of the structure shown.

Columns and labels:
[1] = test system: Typhlodromus pyri; assay: LR50; higher = less toxic; conditions: acute; duration: 14 days; mortality
[2] = test system: Adalia sp.; assay: LR50; higher = less toxic; conditions: not reported; mortality
[3] = test system: Apis mellifera; conditions: acute; duration: 48 hours; oral; unspecified; mortality
[4] = test system: Oryctolagus sp.; conditions: developmental; development
[5] = test system: Oncorhynchus mykiss
[6] = test system: Bibionidae; conditions: chronic/long-term
[7] = test system: Tagia sp.; conditions: acute; duration: 14 days; mortality
[8] = test system: Colinus virginianus
[9] = test system: Anas platyrhynchos
[10] = test system: Neomysis kadiakensis; conditions: acute; duration: 96 hours; mortality
[11] = test system: Rattus norvegicus
[12] = test system: Daphnia magna
[13] = test system: Mus musculus; conditions: chronic; duration: 18 months; histopathology: neoplastic

`CCOC(=O)NCCOc1ccc(Oc2ccccc2)cc1` [Fenoxycarb] was tested. Which LR50 [1] did it give?
The LR50 was greater than 463 g/ha.

What about the LR50 [2] of the same molecule?
The LR50 was greater than 2.5 g/ha.

And the LD50 [3]?
The LD50 was greater than 204 µg/piece.

And the NOAEL [4]?
Its NOAEL is 200 mg/kg-day.

And the LC50 ([5]; acute, duration: 96 hours, mortality)?
The LC50 was 0.66 µg/mL (≈ 2.19 µM).

And the NOEC ([5]; chronic/long-term, duration: 60 days, body weight)?
Its NOEC is 0.048 mg/L.

What about the NOEC [6] of the same molecule?
Its NOEC is 0.0028 mg/kg.

And the NOEC ([6]; duration: 28 days)?
Its NOEC is 0.00075 mg/L.

What about the LC50 [7] of the same molecule?
Its LC50 is greater than 850 mg/kg.

What about the LC50 ([8]; acute, oral, diet, mortality) of the same molecule?
Its LC50 is 1360 mg/kg-day.

And the LD50 ([8]; acute, oral, mortality)?
Its LD50 is greater than 7000 mg/kg-day.

What about the NOEC ([8]; reproduction developmental) of the same molecule?
Its NOEC is 35.9 mg/kg-day.

And the LD50 ([9]; acute, oral, unspecified, mortality)?
The LD50 was greater than 3000 mg/kg-day.

And the NOEC ([9]; reproductive)?
Its NOEC is 17.7 mg/kg-day.

What about the LC50 ([9]; short-term, oral, feed, mortality) of the same molecule?
Its LC50 is greater than 5880 mg/kg-day.

What about the LC50 [10] of the same molecule?
Its LC50 is 0.35 µg/mL (≈ 1.16 µM).

What about the LD50 ([11]; acute, oral, mortality) of the same molecule?
The LD50 was greater than 10000 mg/kg-day.

What about the NOAEC ([11]; chronic) of the same molecule?
The NOAEC was 40 mg/kg-day.

What about the NOAEL ([11]; subchronic, duration: 13 weeks, oral, organ weight) of the same molecule?
Its NOAEL is 9.7 mg/kg-day.

And the LC50 ([12]; acute, duration: 48 hours, mortality)?
Its LC50 is 0.5 µg/mL (≈ 1.66 µM).

What about the NOEC ([12]; chronic/long-term, duration: 21 days, reproduction) of the same molecule?
The NOEC was 1.6e-06 mg/L.

And the LOAEL [13]?
Its LOAEL is 5.3 mg/kg-day.
